{
  "source": "patent US20250177351A1",
  "about": "“ISOINDOLINE COMPOSITIONS AND METHODS FOR TREATING NEURODEGENERATIVE DISEASE” (Cognition Therapeutics, Inc., priority 2022, published 2025)",
  "test_system": "CSF proteins",
  "test": "Phase 1b/2a trial: CSF protein expression by LC/MSMS",
  "assay_type": "in vivo, human",
  "experimental": "COG0102 clinical trial: This trial (ClinicalTrials.gov NCT02907567) was a randomized, double-blind, placebo-controlled clinical trial in mild to moderate Alzheimer's patients (MMSE 18-26) (See FIG. 1 for clinical trial design). The trial was conducted at six sites in Australia. Patients were randomized into placebo (n=5) or CT1812-treated groups: 90 mg (n=4), 280 mg (n=5) or 560 mg (n=5) and treated once daily for 28 days. Clinical chemistry was done at Sydpath (Sydney, AU). Pharmacokinetics were done at CPR Pharma Services (Adelaide, AU). Cerebrospinal fluid samples were taken at screening and day 21-28 of treatment and aliquoted. Plasma samples were taken at screening or Day 1 (one sample) and day 14-28, then spun down to separate plasma and aliquoted. One set of CSF samples was analyzed for Alzheimer's disease biomarkers; protein measurements (Aβ42, Aβ40, total tau, tau phosphorylated at threonine 181 (phosphorylated tau), NFL and neurogranin) were performed using commercially available ELISA assays from Fujirebio according to the manufacturer's instructions (INNOTEST β-AMYLOID(1-42), INNOTEST β-AMYLOID(1-40), INNOTEST hTau Ag, INNOTEST PHOSPHO-TAU(181P), Uman Diagnostics NFL assay). Neurogranin was measured with a sandwich ELISA method using antibodies Ng2 and Ng22 developed at the University of Gotteborg (Kvartsberg et al. 2015). Identical aliquots of CSF, and plasma were analyzed for protein expression changes via LC/MSMS at Caprion (see below).\nLC MSMS biomarker discovery: Matched screening and day 28 plasma and CSF samples were analyzed by LC/MSMS at Caprion Biosciences Inc. Plasma was depleted of high and medium abundance proteins using a commercial immunoaffinity column, IgY14-Supermix (Sigma). CSF was depleted of only 14 high abundance proteins using MARS-14 (Agilent). All samples were digested with trypsin and plasma samples were fractionated by strong cation exchange chromatography (3 fractions). Both CSF and plasma samples were analyzed using a NanoAcquity UPLC coupled to a Q Exactive MS. […] The 12 most intense peaks per survey scan with charge states 2-8 fragmented and scanned with a mass range from 200 to 2000 m/z at a resolution of 17,500. Raw spectrometer data files for each LC-MS run were aligned independently using Elucidator software (Rosetta Biosoftware). The MS/MS spectra were matched to corresponding peptide sequences found in the Uniprot Human protein database (January 2017) using Mascot software, allowing for up to 2 missed cleavages, a peptide tolerance of 20 ppm, and an MS/MS tolerance of 0.05 Da. Outlier detection was performed by determining the average log-intensity of all isotope groups (IG) over injection order for all samples. Samples with an average value greater than 2 standard deviations from the mean were flagged for investigation. Following data transformation and normalization, expression analysis of the identified isotope groups was performed and the statistical significance of each comparison was assessed with a parametric, linear mixed model (LMM) and a non-parametric Wilcoxon ranked test (ranked p-values). Expression analysis was also performed at the peptide and protein levels, which used the same methodology as above, but applied to peptide/protein intensities, derived by rolling-up the corresponding isotope group intensities. Isotope groups not detected in at least half of the samples in either of the two groups being compared were not used for the roll-up.\nHeat map analysis: The difference in protein abundance between day 28 and baseline for each sample was normalized for graphical comparison by converting to z-score. First, the mean and standard deviation (SD) of day 28—baseline values were calculated across all paired samples for each protein. Then, for each patient's paired sample fold change, the difference from the mean was determined and divided by the SD to derive the z-score. […]",
  "data": [
    {"smiles": "CC(C)(C)Oc1cc(CCC(C)(C)N2Cc3ccc(S(C)(=O)=O)cc3C2)ccc1O", "note": "[CT1812]", "values": [
      {"measurement": "Synaptotagmin-1 expression in CSF, decrease in CT1812-treated vs. placebo", "setting": "AD patients, 28 days", "value": 63, "unit": "%"},
      {"measurement": "number of CSF proteins changed differentially vs placebo", "setting": "AD patients, 28 days, p<0.05", "value": 30},
      {"measurement": "FC (Treated) AFM", "setting": "CSF, 28 days vs screening", "value": 0.94},
      {"measurement": "FC (Treated) ANGPTL2", "setting": "CSF, 28 days vs screening", "value": 0.80},
      {"measurement": "FC (Treated) CNTN1", "setting": "CSF, 28 days vs screening", "value": 0.97},
      {"measurement": "FC (Treated) EFNB1", "setting": "CSF, 28 days vs screening", "value": 0.97},
      {"measurement": "FC (Treated) EPHA4", "setting": "CSF, 28 days vs screening", "value": 0.94},
      {"measurement": "FC (Treated) MBL2", "setting": "CSF, 28 days vs screening", "value": 0.75},
      {"measurement": "FC (Treated) NPPC", "setting": "CSF, 28 days vs screening", "value": 0.90},
      {"measurement": "FC (Treated) P4HB", "setting": "CSF, 28 days vs screening", "value": 1.10},
      {"measurement": "FC (Treated) RBP4", "setting": "CSF, 28 days vs screening", "value": 0.82},
      {"measurement": "FC (Treated) ROBO1", "setting": "CSF, 28 days vs screening", "value": 0.96},
      {"measurement": "FC (Treated) SEMA3F", "setting": "CSF, 28 days vs screening", "value": 1.40},
      {"measurement": "FC (Treated) SERPINA4", "setting": "CSF, 28 days vs screening", "value": 0.88},
      {"measurement": "FC (Treated) SMPDL3B", "setting": "CSF, 28 days vs screening", "value": 0.97},
      {"measurement": "FC (Treated) SYT1", "setting": "CSF, 28 days vs screening", "value": 0.78},
      {"measurement": "FC (Treated) TPII", "setting": "CSF, 28 days vs screening", "value": 0.90},
      {"measurement": "FC (Treated) YWHAB", "setting": "CSF, 28 days vs screening", "value": 0.90},
      {"measurement": "FC (Treated vs. Placebo) AFM", "setting": "CSF, 28 days, p-value 0.002, rank p-value 0.003", "value": 0.84},
      {"measurement": "FC (Treated vs. Placebo) SYT1", "setting": "CSF, 28 days, p-value 0.011, rank p-value 0.011", "value": 0.63},
      {"measurement": "FC (Treated vs. Placebo) RBP4", "setting": "CSF, 28 days, p-value 0.018, rank p-value 0.011", "value": 0.81},
      {"measurement": "FC (Treated vs. Placebo) MBL2", "setting": "CSF, 28 days, p-value 0.020, rank p-value 0.006, FC>10 may be artifact", "value": ">10"},
      {"measurement": "FC (Treated vs. Placebo) TNC", "setting": "CSF, 28 days, p-value 0.029, rank p-value 0.011", "value": 0.91},
      {"measurement": "FC (Treated vs. Placebo) EFNB1", "setting": "CSF, 28 days, p-value 0.029, rank p-value 0.034", "value": 0.93},
      {"measurement": "FC (Treated vs. Placebo) EPHA4", "setting": "CSF, 28 days, p-value 0.035, rank p-value 0.076", "value": 0.93},
      {"measurement": "FC (Treated vs. Placebo) MDGA2", "setting": "CSF, 28 days, p-value 0.036, rank p-value 0.106", "value": 0.71},
      {"measurement": "FC (Treated vs. Placebo) YWHAB", "setting": "CSF, 28 days, p-value 0.038, rank p-value 0.148", "value": 0.81},
      {"measurement": "FC (Treated vs. Placebo) ROBO1", "setting": "CSF, 28 days, p-value 0.042, rank p-value 0.106", "value": 0.82},
      {"measurement": "FC (Treated vs. Placebo) TPII", "setting": "CSF, 28 days, p-value 0.044, rank p-value 0.076", "value": 0.87},
      {"measurement": "FC (Treated vs. Placebo) CD14", "setting": "CSF, 28 days, p-value 0.046, rank p-value 0.034", "value": 1.20},
      {"measurement": "FC (Treated vs. Placebo) SERPINA4", "setting": "CSF, 28 days, p-value 0.047, rank p-value 0.020", "value": 0.79},
      {"measurement": "FC (Treated vs. Placebo) CNTN1", "setting": "CSF, 28 days, p-value 0.048, rank p-value 0.076", "value": 0.81},
      {"measurement": "FC (Treated vs. Placebo) ANGPTL2", "setting": "CSF, 28 days, p-value 0.050, rank p-value 0.148", "value": 0.69},
      {"measurement": "FC (Treated vs. Placebo) NPPC", "setting": "CSF, 28 days, p-value 0.060, rank p-value 0.020", "value": 0.91}
    ]}
  ]
}
